# System: orthotopic LM2-4luc breast cancer xenografts
# Test: orthotopic LM2-4luc xenografts, unresected: primary tumor and spontaneous metastasis
# Format: in vivo, human LM2-4luc cells in CB-17 SCID mice
# Conditions: for primary tumor growth: VT from 10DPI, SU 7 days from 17DPI, n = 8, volume or bioluminescence, Fig5A–C
# From the text: The first experiment involved VT and SU treatments in the presence of an unresected primary tumor (Fig5). At 10 days post-implantation (DPI), when primary tumors reached an average size of ∽175 mm^3, mice were randomized into groups and chronic VT therapy was initiated. At 17DPI, when tumors reached an average size (∽400 mm^3) where tumor debulking is typically required for long-term metastasis experiments, a 7-day anti-angiogenic SU treatment was initiated in lieu of surgical resection.
# In vivo experiments were performed in strict accordance with protocols approved by the Sunnybrook Research Institute Animal Care Committee, accredited by the Canadian Council of Animal Care. All surgical, imaging, and euthanasia procedures were performed under inhaled isoflurane anesthesia. Experimental metastasis models involved injections of 10^6 tumor cells, suspended in 200 μl serum-free DMEM, into the mouse tail vein. LM2-4^luc implantations were performed on 6 to 8-week-old female CB-17 SCID mice (Charles River Canada). HT29^luc implantations were performed on 19- to 20-week-old male and 11- to 12-week-old female YFP-SCID mice (bred in-house). SN12^luc implantations were performed on 9-week-old male YFP-SCID mice. Spontaneous metastasis models involved orthotopic implantations of 2 × 10^6 LM2-4^luc cells/50 μl serum-free DMEM in the right inguinal mammary fat pads of 6-week-old female CB-17 SCID mice.
# Sunitinib malate (SU), from Pfizer or LC Laboratories, and its vehicle were formulated as described before (Ebos et al, [2009]). SU was administered by oral gavage (PO), once daily, at a dose of 60 mg/kg mouse weight. Vasculotide (VT): VT synthesized at the Sunnybrook Research Institute (Toronto, ON, Canada) was used in experiments described in Fig2(A–D) and Supplementary Fig S5(A and B). VT synthesized by American Peptide (Sunnyvale, CA, USA) was used in experiments described in Fig5. VT synthesized by Bachem UK Ltd was used in experiments described in Figs1, 2(E–H), 3, 4, 6–9, Supplementary Figs S2, and S5(C and D). Lyophilized product was reconstituted in PBS to 500 μg/500 μl stock aliquots and stored at −80°C. As needed, stock aliquots were diluted with PBS to a 250 ng/50 μl working concentration and stored in 0.4–1 ml aliquots at −80°C. VT (at a standard dose of 250 ng/mouse) or its vehicle (PBS) was administered to mice by intraperitoneal (IP) injections every other day.
# 5. Bioluminescence imaging (BI) of tumor burden
# For in vivo BI: Mice were injected intraperitoneally with 150mg/kg luciferin (Promega) 10 minutes prior to and anesthetized with isofluorane just before luminescent pseudocolor imaging (uniform settings: CCD camera locked at -105 °C, exposure=60s, f/1, subject size=1.5cm, bin=8, FOV=23.2cm, full image correction) using the IVIS 200 Imaging System (Caliper/PerkinElmer). Using the Living Image software (v2.50.1, Xenogen), weekly images were analyzed under uniform color range on grayscale photographic overlay. Total fluxes (photons/sec) were quantified within consistent regions of interest and statistically compared ideally at a timepoint before any deaths have occurred.
# For ex vivo BI: Mice were sacrificed at 7 mins after luciferin injections, then organs of interest were dissected and individually placed within 24-well plates for imaging at 10 min post-luciferin injection.
# 6. Immunohistochemical (IHC) analysis of lung metastases
# Surgically dissected lungs were fixed in 4% paraformaldehyde (PFA) overnight and stored in 70% ethanol. Three paraffin-embedded cross-sections per lung, 5-μm thick, 60 μ m apart, were subjected to IHC staining using a serum-free protein block (Dako X0909), an anti-human vimentin antibody (clone V9, Invitrogen 18-0052; 1:100 in Dako S3022 diluent), the universal ‘LSAB+, HRP’ detection kit (Dako K0690), the DAB+ chromogen-substrate system (Dako K3467) and hematoxylin counterstain.
# Quantification procedure involved visual survey of entire tissue sections and tallying of DAB-stained […]
# [1] = 39DPI, SU 1wk with or without VT, Fig5F
Molecule,incidence of lung metastases (ex vivo bioluminescent imaging) [1],incidence of lymph node metastases (ex vivo bioluminescent imaging) [1],"primary tumor burden by volume (SU 7-day, one-way ANOVA, Fig5B)","primary tumor burden by bioluminescent activity (SU 7-day, one-way ANOVA, Fig5C)",primary tumor growth,"incidence of lymph node metastases (ex vivo bioluminescent imaging) (32DPI, vehicle 2/8, Fig5F)","incidence of lung metastases (ex vivo bioluminescent imaging) (32DPI, vehicle 6/8, Fig5F)","mean thickness of the viable peripheral regions of primary tumors (H&E) (22 days of VT treatment, Fig5D)","mean thickness of the CAIX+ hypoxic edge of primary tumors (22 days of VT treatment, Fig5E)","lung metastatic nodule size distribution (human vimentin IHC) (VT monotherapy, P = 0.05–0.09, Fig5G)","anti-metastatic benefit of concurrent VT treatment by regional IHC analysis (VT with SU, Fig5G)","metastatic involvement in the lungs (EVBI) (VT-treated groups vs vehicle or SU monotherapy, Fig5F)"
"CCN(CC)CCNC(=O)c1c(C)[nH]c(/C=C2\C(=O)Nc3ccc(F)cc32)c1C [sunitinib, reference compound]",4/8,4/8,significantly lowered primary tumor burden,significantly lowered primary tumor burden,effectively stabilized primary tumor growth,–,–,–,–,–,–,–
"CHHHRHSF [Vasculotide, 4-armed maleimide-functionalized polyethylene glycol (PEG) backbone to link together four cysteine-capped T7 peptides, that is, CHHHRHSF]",–,–,–,–,did not alter the growth kinetics of primary tumors,1/8,2/8,did not alter the mean thickness of the viable peripheral regions,did not alter the mean thickness of the CAIX^+ hypoxic edge,delayed the seeding or progression of lung micrometastases,not detectable by regional IHC analysis,"trends of reduced incidences of metastatic involvement in the lungs, but no change in the lymph nodes"

# Reference: PMC4459817, “Vasculotide reduces endothelial permeability and tumor cell extravasation in the absence of binding to or agonistic activation of Tie2” (EMBO Molecular Medicine, 2015)
